Data as given in patent publication US6982150B2, “System and method for identifying proteins involved in force-initiated signal transduction” (priority 2002, dated 2006).

Columns and labels:
[1] = tested on: Triton X-100-insoluble cytoskeletons of L-929 cells; assay: Stretch-dependent GFP paxillin binding to Triton X-100-insoluble cytoskeletons (fluorescence, Western blot); set-up: species or system Mouse
Method: Cells were washed once with isotonic ISO buffer (20 mM Hepes, pH 7.5, 150 mM NaCl, 0.5 mM EDTA, 1 mM DTT, 4 mM MgCl2, 1 mM PMSF, 15 μg/ml aprotinin), treated with 0.25% Triton X-100/ISO(+) buffer (ISO buffer supplemented with 0.5 mM ATP, 2% BSA) for 2 min. and washed three times with ISO (+) buffer.
The supernatant was filtrated using PD-10 column (Amersham Pharmacia Biotech, Piscataway, N.J.) preequilibrated with ISO buffer.
L-929 cells were cultured on the silicone substrate and Triton X-100 treated for 2 minutes, as indicated above. Thereafter, the Triton-X-100-insoluble cytoskeleton was washed 3 times with ISO(+) buffer to remove Triton X-100 and remaining Triton-soluble cellular components. After the third wash, the Triton X-100-insoluble cytoskeleton in ISO (+) buffer was left unstretched, stretched for 15 sec, or relaxed (pre-stretched and released from the stretch). The buffer was replaced with the lysate from L929 cells or 293 cells stably transfected with GFP paxillin and incubated for 2 minutes. The lysate was washed 4 times with ISO(+) buffer.
Cytoskeletons were stretched or unstretched. […]

L-929 cells = assay: Stretch-dependent paxillin assembly at focal contacts in intact cells (fluorescence microscopy / immunostaining); assay type: cell-based, Mouse; details: intact L-929 cells, biaxial stretch 10%, genistein 100 μM, FIG. 4B
Method: Subconfluent L-929 cells transiently transfected with GFP paxillin in the collagen-coated (type I) silicone membrane (Flexcell International, Hillsborough, N.C.) were stretched biaxially (10% in each dimension) for 2 min., and the GFP fluorescence was observed by fluorescence microscopy. Five min after stretch, the silicone substrate was relaxed to its original size, and the fluorescence was recorded. For endogenous paxillin measurement, L-929 cells cultured in silicone membranes were stretched likewise for 2 min, and fixed with 3.7% formaldehyde/PBS.
GFP fluorescence of L-929 cells transfected with GFP-paxillin were also observed with an Olympus BX50 microscope with a 60×, 0.9 NA water immersion objective.
For immunostaining, cells were fixed with 3.7% formaldehyde/PBS, perneabilized with 0.1% Triton X-100/PBS before incubation with antibodies to paxillin and vinculin.

## [Na+].[Na+].[Na+].[O]=[V]([O-])([O-])[O-] [sodium orthovandate]
[1]; 1 mM added to lysates together with PAO, DTT excluded, FIG. 5C
  stretch-dependent GFP paxillin binding: did not affect

## O=c1c(-c2ccc(O)cc2)coc2cc(O)cc(O)c12 [genistein]
[1]; cells treated prior to Triton extraction, subconfluent, FIG. 5A, 5B, 5D
  amount of GFP paxillin bound to the stretched cytoskeletons: increase
L-929 cells
  stretch-dependent paxillin accumulation: not inhibited
